Measured values from patent publication US11051516B2, “Antimicrobial sanitizer compositions and their use” (GFS CORPORATION AUS PTY LTD, priority 2014, dated 2021).

Tested on: Escherichia coli K12 NCTC 10538
Assay: Hygienic Handrub test BS EN 1500:2013 on human volunteers' hands
Format: in vivo
Experimental: The composition of Example 2 was tested for compliance with requirements for chemical disinfectants and antiseptics in accordance with European Standard BS EN 1500:2013 Chemical Disinfectants and Antiseptics—Hygienic Handrub—Test Method and Requirements. The test organism was Escherichia coli K12 NCTC 10538 which was obtained as a freeze dried ampoule and was reconstituted using Tryptone Soy Broth and incubated to achieve a concentration of 2×10^9 Cfu/mL. The reference standard was propan-2-ol 60% v/v solution in sterile water. There were no deviations from the standard test method.
Human volunteer's hands were washed for 1 minute with diluted soft soap (5 mL), rinsed in running water and dried with a paper towel for at least 30 seconds. The hands were immersed up to the mid-metacarpals for five seconds and the liquid was allowed to drain back into the container for a maximum of 30 seconds before allowing to air dry for three minutes.
The reference standard (3.0 mL) was applied and rubbed for 30 seconds. This was repeated with a second portion of reference standard (3.0 mL) and rubbing for a further 30 seconds. This procedure was repeated for 20 volunteers.
This protocol was repeated on 20 volunteers using the composition of Example 2.
The protocol of Example 16 was repeated for the composition of Example 4.

SMILES: CC(C)O [reference standard, propan-2-ol]
- Mean Log Reduction Factor (Example 16, 20 volunteers, 2 x 3.0 mL, rubbed 30 seconds each): 3.89
- Mean Log Reduction Factor (Example 17, protocol of Example 16 repeated): 3.90
